This is an account of results in publication PMC13004581, “Physical Mechanisms of an Unconventional Green Fluorescent Protein Indicator for Chloride” (The Journal of Physical Chemistry. B, 2026).

The target in this experiment is T1, cgreGFP (Clytia gregaria, UniProt D7PM05).
T1 construct: gene GFP2; full-length, N-terminal polyhistidine tag kept (pET-28a(+)-TEV, NdeI/BamHI), codon-optimized gene, expressed in E. coli BL21(DE3)
T1 sequence (D7PM05 1-235): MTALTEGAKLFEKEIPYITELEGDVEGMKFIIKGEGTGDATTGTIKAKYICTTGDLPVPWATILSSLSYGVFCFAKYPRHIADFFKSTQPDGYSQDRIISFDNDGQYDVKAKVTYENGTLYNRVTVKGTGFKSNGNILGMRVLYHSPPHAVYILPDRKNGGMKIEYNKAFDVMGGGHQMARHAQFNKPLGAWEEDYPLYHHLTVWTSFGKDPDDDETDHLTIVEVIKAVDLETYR
Put plainly: fluorescence titration (ex […] nm, em […] nm). It counts as binding. The following applies: read-out: K d (apparent).
Consider `Cl` [chloride], for which the Kd was found to be 25.2 ± 2 mM.
Under `O=[N+]([O-])O` [nitrate] stands 10.7 ± 1.2 mM; under `Br` [bromide], 15.1 ± 1.2 mM.
Then `I` [iodide], with 5.3 mM.
